Assays:
[1] = biological target: D(3) dopamine receptor (Homo sapiens, UniProt P35462); assay: Displacement of [3H]N-methylspiperone from human dopamine D3 receptor expressed in HEK293T cell membranes after 90 mins by scintillation counting method
[2] = biological target: Sigma intracellular receptor 2 (Homo sapiens, UniProt Q5BJF2); assay: Displacement of [3H]-DTG from human sigma2 receptor expressed in HEK293T cell membranes after 90 mins by scintillation counting method
[3] = biological target: T1, P2Y purinoceptor 14 (Homo sapiens, UniProt Q15391)
T1 sequence (Q15391 whole entry): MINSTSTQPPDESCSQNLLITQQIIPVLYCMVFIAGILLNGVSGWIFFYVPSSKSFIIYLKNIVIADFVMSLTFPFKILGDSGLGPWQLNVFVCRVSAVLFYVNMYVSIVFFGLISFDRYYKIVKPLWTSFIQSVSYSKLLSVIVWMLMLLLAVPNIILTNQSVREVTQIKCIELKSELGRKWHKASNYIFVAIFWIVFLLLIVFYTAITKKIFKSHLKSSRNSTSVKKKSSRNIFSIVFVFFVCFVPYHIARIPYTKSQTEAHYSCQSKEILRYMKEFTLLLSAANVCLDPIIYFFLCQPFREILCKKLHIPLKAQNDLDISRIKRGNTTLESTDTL
Description: Displacement of MRS4174 from human P2Y14R expressed in CHO cells preincubated for 30 mins followed by MRS4174 addition measured after 30 mins by flow cytometric method

[4] = biological target: Alpha-1B adrenergic receptor (Homo sapiens, UniProt P35368); assay: Displacement of [3H]-Prazosin from human adrenergic alpha1B receptor after 90 mins by scintillation counting method
[5] = biological target: D(1A) dopamine receptor (Homo sapiens, UniProt P21728); assay: Displacement of [3H]SCH23390 from human dopamine D1 receptor expressed in HEK293T cell membranes after 90 mins by scintillation counting method
D(1A) dopamine receptor, sequence (P21728 whole entry): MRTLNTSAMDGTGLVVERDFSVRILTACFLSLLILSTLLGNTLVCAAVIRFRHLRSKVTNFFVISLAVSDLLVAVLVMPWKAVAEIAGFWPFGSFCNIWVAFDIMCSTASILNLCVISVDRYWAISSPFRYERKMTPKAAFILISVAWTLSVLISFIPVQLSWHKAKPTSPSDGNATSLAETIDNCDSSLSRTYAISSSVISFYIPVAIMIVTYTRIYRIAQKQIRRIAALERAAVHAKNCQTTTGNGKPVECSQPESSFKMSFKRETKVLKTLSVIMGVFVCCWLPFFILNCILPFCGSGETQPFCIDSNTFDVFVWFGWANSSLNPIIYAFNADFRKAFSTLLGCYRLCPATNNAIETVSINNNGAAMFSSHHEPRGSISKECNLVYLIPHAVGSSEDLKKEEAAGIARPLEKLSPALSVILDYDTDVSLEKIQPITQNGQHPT

[6] = biological target: D(2) dopamine receptor (Homo sapiens, UniProt P14416); assay: Displacement of [3H]N-methylspiperone from human dopamine D2 receptor expressed in HEK293T cell membranes after 90 mins by scintillation counting method
D(2) dopamine receptor, sequence (P14416 whole entry): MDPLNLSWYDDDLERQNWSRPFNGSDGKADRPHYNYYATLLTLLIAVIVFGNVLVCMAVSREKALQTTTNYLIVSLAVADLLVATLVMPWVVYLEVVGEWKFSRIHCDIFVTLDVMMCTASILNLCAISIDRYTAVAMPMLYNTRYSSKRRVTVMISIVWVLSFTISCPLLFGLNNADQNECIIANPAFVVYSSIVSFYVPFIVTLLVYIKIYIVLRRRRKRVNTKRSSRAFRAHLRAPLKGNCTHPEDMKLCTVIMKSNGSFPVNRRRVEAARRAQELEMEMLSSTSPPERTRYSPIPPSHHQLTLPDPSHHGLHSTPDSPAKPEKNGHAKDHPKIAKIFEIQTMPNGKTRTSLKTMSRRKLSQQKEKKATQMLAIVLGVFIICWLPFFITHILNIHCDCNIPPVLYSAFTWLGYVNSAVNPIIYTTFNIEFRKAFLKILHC

[7] = biological target: Sodium-dependent dopamine transporter (Homo sapiens, UniProt Q01959); assay: Displacement of [3H]-WIN35428 from human DAT after 90 mins by scintillation counting method
Sodium-dependent dopamine transporter, sequence (Q01959 whole entry): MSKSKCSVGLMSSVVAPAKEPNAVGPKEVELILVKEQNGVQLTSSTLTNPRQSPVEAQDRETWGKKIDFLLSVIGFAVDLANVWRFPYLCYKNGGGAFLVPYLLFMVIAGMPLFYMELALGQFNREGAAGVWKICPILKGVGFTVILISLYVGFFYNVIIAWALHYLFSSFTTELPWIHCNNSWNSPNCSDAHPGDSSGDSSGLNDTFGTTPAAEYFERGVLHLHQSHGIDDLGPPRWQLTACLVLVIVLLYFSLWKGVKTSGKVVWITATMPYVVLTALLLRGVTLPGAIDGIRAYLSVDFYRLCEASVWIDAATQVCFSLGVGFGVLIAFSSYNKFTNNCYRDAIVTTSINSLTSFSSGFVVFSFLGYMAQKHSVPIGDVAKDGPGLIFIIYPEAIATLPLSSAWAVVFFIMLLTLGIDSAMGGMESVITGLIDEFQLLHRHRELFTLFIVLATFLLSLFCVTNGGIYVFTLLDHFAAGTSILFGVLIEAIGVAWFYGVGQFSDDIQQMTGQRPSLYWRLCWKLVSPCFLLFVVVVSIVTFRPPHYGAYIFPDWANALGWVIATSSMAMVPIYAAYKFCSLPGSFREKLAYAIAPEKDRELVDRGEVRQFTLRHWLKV

[8] = biological target: D(1B) dopamine receptor (Homo sapiens, UniProt P21918); assay: Displacement of [3H]SCH23390 from human dopamine D5 receptor expressed in HEK293T cell membranes after 90 mins by scintillation counting method
D(1B) dopamine receptor, sequence (P21918 whole entry): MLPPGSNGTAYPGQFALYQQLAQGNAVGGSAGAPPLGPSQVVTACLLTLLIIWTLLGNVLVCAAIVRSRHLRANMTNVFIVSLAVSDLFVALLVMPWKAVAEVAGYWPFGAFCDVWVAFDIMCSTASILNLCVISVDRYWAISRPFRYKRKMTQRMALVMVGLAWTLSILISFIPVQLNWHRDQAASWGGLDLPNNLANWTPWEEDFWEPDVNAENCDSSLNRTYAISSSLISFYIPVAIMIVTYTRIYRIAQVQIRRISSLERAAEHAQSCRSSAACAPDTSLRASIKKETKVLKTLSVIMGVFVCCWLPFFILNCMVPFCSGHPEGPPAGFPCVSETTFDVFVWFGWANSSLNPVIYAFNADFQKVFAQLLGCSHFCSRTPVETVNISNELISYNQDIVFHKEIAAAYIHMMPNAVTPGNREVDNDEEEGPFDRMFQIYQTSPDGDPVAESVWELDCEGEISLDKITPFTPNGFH

[9] = biological target: Alpha-1A adrenergic receptor (Homo sapiens, UniProt P35348); assay: Displacement of [3H]-Prazosin from human adrenergic alpha1A receptor after 90 mins by scintillation counting method
Alpha-1A adrenergic receptor, sequence (P35348 whole entry): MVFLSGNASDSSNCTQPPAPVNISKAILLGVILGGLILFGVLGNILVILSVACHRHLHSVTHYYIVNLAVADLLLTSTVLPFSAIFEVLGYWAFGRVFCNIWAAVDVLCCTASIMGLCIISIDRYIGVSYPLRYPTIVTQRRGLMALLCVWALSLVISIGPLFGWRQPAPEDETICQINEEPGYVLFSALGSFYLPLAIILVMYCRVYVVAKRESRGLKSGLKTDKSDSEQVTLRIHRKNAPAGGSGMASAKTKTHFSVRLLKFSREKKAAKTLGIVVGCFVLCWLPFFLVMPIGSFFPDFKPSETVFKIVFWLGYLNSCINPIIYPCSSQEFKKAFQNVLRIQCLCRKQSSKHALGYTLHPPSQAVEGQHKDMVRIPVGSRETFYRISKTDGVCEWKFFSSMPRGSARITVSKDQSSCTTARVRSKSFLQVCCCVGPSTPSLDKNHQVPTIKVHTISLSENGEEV

[10] = biological target: Alpha-1D adrenergic receptor (Homo sapiens, UniProt P25100); assay: Displacement of [3H]-Prazosin from human adrenergic alpha1D receptor after 90 mins by scintillation counting method
[11] = biological target: Alpha-2A adrenergic receptor (Homo sapiens, UniProt P08913); assay: Displacement of [3H]Rauwolscine from human adrenergic alpha2A receptor expressed in MDCK cell membranes after 90 mins by scintillation counting method
Alpha-2A adrenergic receptor, sequence (P08913 whole entry): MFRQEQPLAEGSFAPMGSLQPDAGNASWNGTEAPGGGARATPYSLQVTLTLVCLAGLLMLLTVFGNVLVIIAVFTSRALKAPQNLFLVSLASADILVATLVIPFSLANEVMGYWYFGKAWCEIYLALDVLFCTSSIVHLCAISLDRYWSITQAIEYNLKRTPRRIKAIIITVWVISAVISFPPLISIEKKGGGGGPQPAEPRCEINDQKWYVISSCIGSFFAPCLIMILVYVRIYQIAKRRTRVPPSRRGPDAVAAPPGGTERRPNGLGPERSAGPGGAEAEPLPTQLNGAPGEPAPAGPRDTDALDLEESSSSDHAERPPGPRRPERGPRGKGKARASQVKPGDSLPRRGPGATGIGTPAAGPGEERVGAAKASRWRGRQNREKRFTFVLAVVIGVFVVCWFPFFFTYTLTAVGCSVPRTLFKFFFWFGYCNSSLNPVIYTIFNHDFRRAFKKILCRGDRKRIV

[12] = biological target: 5-hydroxytryptamine receptor 2A (Homo sapiens, UniProt P28223); assay: Displacement of [3H]-Ketanserin from human 5-HT2A receptor expressed in HEK293T cell membranes after 90 mins by scintillation counting method
[13] = biological target: Sodium-dependent noradrenaline transporter (Homo sapiens, UniProt P23975); assay: Displacement of [3H]-Nisoxetine from human NET expressed in HEK293 cell membranes after 90 mins by scintillation counting method
Sodium-dependent noradrenaline transporter, sequence (P23975 whole entry): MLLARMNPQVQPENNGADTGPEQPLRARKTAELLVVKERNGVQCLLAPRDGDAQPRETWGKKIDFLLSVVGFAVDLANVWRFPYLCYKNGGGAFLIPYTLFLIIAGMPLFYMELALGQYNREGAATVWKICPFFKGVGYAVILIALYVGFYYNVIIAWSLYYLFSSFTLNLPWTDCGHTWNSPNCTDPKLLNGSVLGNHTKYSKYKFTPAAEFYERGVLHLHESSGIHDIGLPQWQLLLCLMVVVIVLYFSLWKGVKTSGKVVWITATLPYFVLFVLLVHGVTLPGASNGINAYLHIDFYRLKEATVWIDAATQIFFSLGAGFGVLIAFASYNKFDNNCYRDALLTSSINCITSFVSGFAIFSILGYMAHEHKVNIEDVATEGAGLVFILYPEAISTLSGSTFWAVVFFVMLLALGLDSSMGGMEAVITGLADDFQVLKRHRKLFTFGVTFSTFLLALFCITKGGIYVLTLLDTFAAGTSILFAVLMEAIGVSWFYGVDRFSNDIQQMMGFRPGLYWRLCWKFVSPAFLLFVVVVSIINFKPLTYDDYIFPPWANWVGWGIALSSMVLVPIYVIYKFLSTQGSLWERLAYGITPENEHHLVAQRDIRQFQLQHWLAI

[14] = biological target: Histamine H2 receptor (Homo sapiens, UniProt P25021); assay: Displacement of [125I]-Iodoaminopotentidine from human histamine H2 receptor expressed in HEK293T cell membranes after 90 mins by scintillation counting method
Histamine H2 receptor, sequence (P25021 whole entry): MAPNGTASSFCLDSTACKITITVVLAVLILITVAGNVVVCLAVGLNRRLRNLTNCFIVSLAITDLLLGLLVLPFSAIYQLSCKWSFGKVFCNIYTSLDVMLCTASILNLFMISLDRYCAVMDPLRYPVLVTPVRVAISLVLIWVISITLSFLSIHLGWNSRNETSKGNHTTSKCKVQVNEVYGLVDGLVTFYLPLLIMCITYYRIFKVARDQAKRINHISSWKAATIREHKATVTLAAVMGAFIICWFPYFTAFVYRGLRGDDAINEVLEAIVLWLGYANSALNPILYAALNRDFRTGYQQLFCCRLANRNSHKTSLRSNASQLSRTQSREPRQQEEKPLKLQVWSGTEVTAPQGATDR

[15] = biological target: 5-hydroxytryptamine receptor 1A (Homo sapiens, UniProt P08908); assay: Displacement of [3H]-Way100635 from human 5-HT1A receptor expressed in CHO cell membranes after 90 mins by scintillation counting method
5-hydroxytryptamine receptor 1A, sequence (P08908 whole entry): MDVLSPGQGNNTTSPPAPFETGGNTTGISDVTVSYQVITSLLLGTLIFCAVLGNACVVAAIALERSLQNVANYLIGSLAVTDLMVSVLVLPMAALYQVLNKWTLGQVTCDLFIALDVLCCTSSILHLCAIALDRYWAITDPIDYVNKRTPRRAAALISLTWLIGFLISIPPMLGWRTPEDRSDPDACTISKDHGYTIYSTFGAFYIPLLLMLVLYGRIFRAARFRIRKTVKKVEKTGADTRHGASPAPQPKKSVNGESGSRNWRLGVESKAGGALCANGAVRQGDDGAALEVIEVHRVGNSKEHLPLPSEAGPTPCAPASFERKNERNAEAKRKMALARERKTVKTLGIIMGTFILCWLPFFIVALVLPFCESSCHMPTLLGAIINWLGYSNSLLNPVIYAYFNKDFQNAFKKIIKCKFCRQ

[16] = biological target: Alpha-2B adrenergic receptor (Homo sapiens, UniProt P18089); assay: Displacement of [3H]Rauwolscine from human adrenergic alpha2B receptor expressed in HEK293T cell membranes after 90 mins by scintillation counting method
[17] = biological target: Delta-type opioid receptor (Homo sapiens, UniProt P41143); assay: Displacement of [3H]-DADLE from human delta opioid receptor expressed in HEK293 cells after 90 mins by scintillation counting method; assay type: cell-based
Delta-type opioid receptor, sequence (P41143 whole entry): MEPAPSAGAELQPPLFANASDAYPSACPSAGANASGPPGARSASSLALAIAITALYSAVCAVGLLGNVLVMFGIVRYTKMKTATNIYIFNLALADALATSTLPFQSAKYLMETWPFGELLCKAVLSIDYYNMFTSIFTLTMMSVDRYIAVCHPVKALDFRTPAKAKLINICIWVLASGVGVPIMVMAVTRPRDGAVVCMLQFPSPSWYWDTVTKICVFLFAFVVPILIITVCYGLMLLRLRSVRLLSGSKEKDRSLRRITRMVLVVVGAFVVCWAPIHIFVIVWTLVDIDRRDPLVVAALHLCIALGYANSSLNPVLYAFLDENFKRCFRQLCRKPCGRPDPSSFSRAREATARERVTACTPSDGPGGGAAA

[18] = biological target: Translocator protein (Rattus norvegicus, UniProt P16257); assay: Displacement of [3H]-PK11195 from rat brain TSPO after 90 mins by scintillation counting method
Translocator protein, sequence (P16257 whole entry, looked up): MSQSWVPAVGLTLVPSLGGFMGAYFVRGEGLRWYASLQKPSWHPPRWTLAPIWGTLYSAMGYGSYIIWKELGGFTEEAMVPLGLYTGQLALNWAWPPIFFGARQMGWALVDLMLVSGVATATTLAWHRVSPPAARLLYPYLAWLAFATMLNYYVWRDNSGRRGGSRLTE

[19] = biological target: Beta-3 adrenergic receptor (Homo sapiens, UniProt P13945); assay: Displacement of [3H]-CGP12177 from human adrenergic beta-3 receptor expressed in HEK Flp-In cell membranes after 90 mins by scintillation counting method
[20] = biological target: 5-hydroxytryptamine receptor 6 (Homo sapiens, UniProt P50406); assay: Displacement of [3H]-LSD from human 5-HT6 receptor expressed in HEK293 cell membranes after 90 mins by scintillation counting method
[21] = biological target: Sodium-dependent serotonin transporter (Homo sapiens, UniProt P31645); assay: Displacement of [3H]-Citalopram from human SERT expressed in HEK293 cell membranes after 90 mins by scintillation counting method
[22] = biological target: Kappa-type opioid receptor (Homo sapiens, UniProt P41145); assay: Displacement of [3H]-U69593 from human KOR expressed in HEK293 cell membranes after 90 mins by scintillation counting method

Row | SMILES | IC50 [3] [nM] | other results
1 | NCCCCCCn1cc(CCCCN2CCC(c3ccc(-c4cc(C(=O)O)cc5cc(-c6ccc(C(F)(F)F)cc6)ccc45)cc3)CC2)nn1 | 25.4 | Ki [1]: 1600 nM; Ki [2]: 1200 nM; Ki [4]: 1110 nM; Ki [5]: 7600 nM; Ki [6]: 8210 nM; Ki [7]: 1070 nM; Ki [8]: 1070 nM; Ki [9]: 1770 nM; Ki [10]: 1270 nM; Ki [11]: 28 nM; Ki [12]: 8400 nM; Ki [13]: 1870 nM; Ki [14]: 365 nM; Ki [15]: 5650 nM; Ki [16]: 984 nM
2 | CCNC(=O)c1ccc(-c2cc(C(=O)O)cc(-n3cc(-c4ccc(C(F)(F)F)cc4)nn3)c2)cc1 | 899 | –
3 | NC(=O)c1ccc(-c2cc(C(=O)O)cc(-n3cc(-c4ccc(C(F)(F)F)cc4)nn3)c2)cn1 | 1410 | –
4 | NCCNS(=O)(=O)c1ccc(-c2cc(C(=O)O)cc(-n3cc(-c4ccc(C(F)(F)F)cc4)nn3)c2)s1 | 2260 | –
5 | O=C(O)c1cc(-c2ccc(S(=O)(=O)N3CCNCC3)s2)cc(-n2cc(-c3ccc(C(F)(F)F)cc3)nn2)c1 | 1510 | –
6 | CC(C)(C)OC(=O)N1CCN(S(=O)(=O)c2ccc(-c3cc(C(=O)O)cc(-n4cc(-c5ccc(C(F)(F)F)cc5)nn4)c3)cc2)CC1 | > 50000 | –
7 | NCCCNS(=O)(=O)c1ccc(-c2cc(C(=O)O)cc(-n3cc(-c4ccc(C(F)(F)F)cc4)nn3)c2)s1 | 756 | –
8 | CC(C)(C)OC(=O)N1CCN(Cc2ccc(-c3cc(C(=O)O)cc(-n4cc(-c5ccc(C(F)(F)F)cc5)nn4)c3)s2)CC1 | 67200 | –
9 | CC(C)(C)OC(=O)NCCCNS(=O)(=O)c1ccc(-c2cc(C(=O)O)cc(-n3cc(-c4ccc(C(F)(F)F)cc4)nn3)c2)s1 | 9330 | –
10 | NS(=O)(=O)c1ccc(-c2cc(C(=O)O)cc(-n3cc(-c4ccc(C(F)(F)F)cc4)nn3)c2)s1 | 6440 | –
11 | NS(=O)(=O)c1ccc(-c2cc(C(=O)O)cc(-n3cc(-c4ccc(C(F)(F)F)cc4)nn3)c2)cc1 | 608 | Ki [17]: 3260 nM
12 | NCCCNC(=O)c1csc(-c2cc(C(=O)O)cc(-n3cc(-c4ccc(C(F)(F)F)cc4)nn3)c2)c1 | 735 | –
13 | CC(C)(C)NC(=O)c1ccc(-c2cc(C(=O)O)cc(-n3cc(-c4ccc(C(F)(F)F)cc4)nn3)c2)cc1 | 7530 | –
14 | FC(F)(F)c1ccc(-c2cn(-c3cc(-c4ccc(C5CCNCC5)cc4)cc(-c4nnn[nH]4)c3)nn2)cc1 | 958 | –
15 | NC(=O)c1ccc(-c2cc(-c3nnn[nH]3)cc(-n3cc(-c4ccc(C(F)(F)F)cc4)nn3)c2)cc1 | 2430 | –
16 | O=C(O)c1cc(O)cc(-n2cc(-c3ccc(C(F)(F)F)cc3)nn2)c1 | 16400 | –
17 | FC(F)(F)c1ccc(-c2cn(-c3cc(Br)cc(-c4nnn[nH]4)c3)nn2)cc1 | 33100 | –
18 | NC(=O)c1ccc(-c2cc(C(=O)O)cc(-n3cc(-c4ccc(C(F)(F)F)cc4)nn3)c2)nc1 | 516 | –
19 | CC(C)(C)NC(=O)c1ccc(-c2cc(-c3nnn[nH]3)cc(-n3cc(-c4ccc(C(F)(F)F)cc4)nn3)c2)cc1 | 20700 | –
20 | NC(=O)c1ccc(-c2cc(C(=O)O)cc(-n3cc(-c4ccc(C(F)(F)F)cc4)nn3)c2)o1 | 3110 | –
21 | O=C(O)c1cc(-c2ccc(S(=O)(=O)NCCCCO)s2)cc(-n2cc(-c3ccc(C(F)(F)F)cc3)nn2)c1 | 8420 | –

Row | SMILES | IC50 [3] [nM] | other results
22 | O=C(O)c1cc(-c2ccc(C(=O)N3CCNCC3)s2)cc(-n2cc(-c3ccc(C(F)(F)F)cc3)nn2)c1 | 12600 | –
23 | CC(C)(C)OC(=O)NCCNS(=O)(=O)c1ccc(-c2cc(C(=O)O)cc(-n3cc(-c4ccc(C(F)(F)F)cc4)nn3)c2)s1 | 5920 | –
24 | CC(C)(C)OC(=O)NCCCNC(=O)c1ccc(-c2cc(C(=O)O)cc(-n3cc(-c4ccc(C(F)(F)F)cc4)nn3)c2)s1 | 2280 | –
25 | O=C(O)c1cc(O)c2ccc(-c3ccc(C(F)(F)F)cc3)cc2c1 | – | Ki [13]: 5800 nM
26 | CC(C)(C)OC(=O)NCCCCCCn1cc(CCCCN2CCC(c3ccc(-c4cc(C(=O)O)cc5cc(-c6ccc(C(F)(F)F)cc6)ccc45)cc3)CC2)nn1 | 133 | Ki [18]: 5600 nM; Ki [19]: 2360 nM; Ki [20]: 7900 nM; Ki [21]: 2080 nM; Ki [11]: 5280 nM; Ki [14]: 829 nM; Ki [22]: 4060 nM
27 | CNC(=O)c1ccc(-c2cc(C(=O)O)cc(-n3cc(-c4ccc(C(F)(F)F)cc4)nn3)c2)cc1 | 563 | –
28 | CC(C)(C)OC(=O)NCCCCNS(=O)(=O)c1ccc(-c2cc(C(=O)O)cc(-n3cc(-c4ccc(C(F)(F)F)cc4)nn3)c2)s1 | 13600 | –
29 | O=C(O)c1cc(Br)cc(-n2cc(-c3ccc(C(F)(F)F)cc3)nn2)c1 | 26800 | –
30 | NCCCCNS(=O)(=O)c1ccc(-c2cc(C(=O)O)cc(-n3cc(-c4ccc(C(F)(F)F)cc4)nn3)c2)s1 | 2180 | –
31 | O=C(O)c1cc(-c2ccc(S(=O)(=O)N3CCNCC3)cc2)cc(-n2cc(-c3ccc(C(F)(F)F)cc3)nn2)c1 | 1640 | –
32 | NCCCNC(=O)c1ccc(-c2cc(-c3nnn[nH]3)cc(-n3cc(-c4ccc(C(F)(F)F)cc4)nn3)c2)s1 | 1190 | –
33 | CC(=O)NCCCCCCn1cc(CCCCN2CCC(c3ccc(-c4cc(C(=O)O)cc5cc(-c6ccc(C(F)(F)F)cc6)ccc45)cc3)CC2)nn1 | 83.5 | –
34 | C#CCCCCN1CCC(c2ccc(-c3cc(C(=O)O)cc4cc(-c5ccc(C(F)(F)F)cc5)ccc34)cc2)CC1 | 763 | –
35 | O=C(O)c1cc(-c2ccc(CN3CCNCC3)s2)cc(-n2cc(-c3ccc(C(F)(F)F)cc3)nn2)c1 | 1960 | –
36 | CC(C)(C)OC(=O)N1CCN(C(=O)c2ccc(-c3cc(C(=O)O)cc(-n4cc(-c5ccc(C(F)(F)F)cc5)nn4)c3)s2)CC1 | 53000 | –
37 | NC(=O)c1cnc(-c2cc(C(=O)O)cc(-n3cc(-c4ccc(C(F)(F)F)cc4)nn3)c2)cn1 | 566 | –
38 | NCCCNC(=O)c1cc(-c2cc(C(=O)O)cc(-n3cc(-c4ccc(C(F)(F)F)cc4)nn3)c2)cs1 | 1750 | –
39 | CCCNC(=O)c1ccc(-c2cc(C(=O)O)cc(-n3cc(-c4ccc(C(F)(F)F)cc4)nn3)c2)cc1 | 1490 | –
40 | CC(C)(C)OC(=O)N1CCN(S(=O)(=O)c2ccc(-c3cc(C(=O)O)cc(-n4cc(-c5ccc(C(F)(F)F)cc5)nn4)c3)s2)CC1 | 54700 | –
41 | NCCCNC(=O)c1ccc(-c2cc(C(=O)O)cc(-n3cc(-c4ccc(C(F)(F)F)cc4)nn3)c2)o1 | 10900 | –

Source: ChEMBL document CHEMBL4184336, “Structure-Guided Modification of Heterocyclic Antagonists of the P2Y14 Receptor” (J Med Chem, 2018)
